Our source for the IC50 values is US20110288057A1, “SALICYLIC ACID DERIVATIVES BEING FARNESYL PYROPHOSPHATE SYNTHASE ACTIVITY INHIBITORS” (Novartis AG, priority 2008, published 2011).

The assay addresses T1, Recombinant human Farnesyl Pyrophosphate synthase (FPPS) (Homo sapiens, UniProt P14324).
T1 construct: made in house
T1 sequence (P14324 72-419 limits assumed): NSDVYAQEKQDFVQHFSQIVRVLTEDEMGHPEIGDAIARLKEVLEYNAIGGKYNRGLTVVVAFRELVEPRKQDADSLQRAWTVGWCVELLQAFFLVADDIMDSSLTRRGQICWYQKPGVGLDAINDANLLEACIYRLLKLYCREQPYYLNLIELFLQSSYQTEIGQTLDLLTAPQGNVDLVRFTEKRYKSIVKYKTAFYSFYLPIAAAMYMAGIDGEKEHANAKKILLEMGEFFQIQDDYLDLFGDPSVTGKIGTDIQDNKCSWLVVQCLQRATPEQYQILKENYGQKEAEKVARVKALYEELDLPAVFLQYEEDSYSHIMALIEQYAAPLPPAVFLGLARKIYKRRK
The experiment in a line: FPPS SPA (scintillation proximity FlashPlate assay of FPPS inhibition). The assay is classed as biochemical.

[1] abbreviates: Example 13 table, FPPS SPA, read-out: IC50.
The mark [2] stands for this setting: IC50, Example 13 table, FPPS SPA.
Where [3] appears, read: Example 15 table, FPPS SPA, read-out: IC50.
The mark [4] stands for this setting: Example 16 table, FPPS SPA, read-out: IC50.
Setting [5] is: Inhibition according to the FPPS SPA (Example 21), read-out: IC50.

Read-outs that look alike come from different tables or passages of the source.

Regarding `COc1ccc(-c2ccc(C(=O)O)c(OCc3cccc4ccccc34)c2)cc1OC` [13 ab)], under setting [1], the IC50 came to 260 nM.
With `O=C(O)c1ccc(-c2ccc(Cl)c(Cl)c2)cc1OCc1cccc2ccccc12` [13 ac)], the 50% inhibitory concentration (IC50) under setting [1] is 1460 nM.
On the same count and under the same terms, as for `O=C(O)c1ccc(-c2cccc(CO)c2)cc1OCc1cccc2ccccc12` [13 ad)], the figure is 500 nM; as for `O=C(O)c1ccc(-c2cccc(OC(F)(F)F)c2)cc1OCc1cccc2ccccc12` [13 ae)], over 10000 nM; as for `COc1cccc(-c2ccc(C(=O)O)c(OCc3cccc4ccccc34)c2)c1` [13 af)], 1550 nM.
On the same count and under the same terms, under `Cc1cccc(C)c1-c1ccc(C(=O)O)c(OCc2cccc3ccccc23)c1` [13 ag)] stands 1100 nM; under `O=C(O)c1ccc(-c2cccc3[nH]ccc23)cc1OCc1cccc2ccccc12` [13 ah)], 260 nM; under `O=C(O)c1ccc(-c2ccc(F)c(F)c2)cc1OCc1cccc2ccccc12` [13 ai)], 320 nM.
On to `O=C(O)c1ccc(-c2ccoc2)cc1OCc1cccc2ccccc12` [13 aj)], for which the IC50 under setting [1] stood at 550 nM.
The same measure, in the same setting: under `O=C(O)c1ccc(-c2ccccc2F)cc1OCc1cccc2ccccc12` [13 ak)] stands 230 nM; under `O=C(O)c1ccc(-c2cc3ccccc3o2)cc1OCc1cccc2ccccc12` [13 al)], 1120 nM; under `O=C(O)c1ccc(-c2ccc3[nH]ccc3c2)cc1OCc1cccc2ccccc12` [13 am)], 340 nM.
As for `O=C(O)c1ccc(-c2csc3ccccc23)cc1OCc1cccc2ccccc12` [13 an)], under setting [1], the IC50 was 1350 nM.
The same measure, in the same setting: under `O=C(O)c1ccc(-c2ccc3c(c2)OCCO3)cc1OCc1cccc2ccccc12` [13 ao)] stands 420 nM.
With `COc1ccccc1-c1ccc(C(=O)O)c(OCc2cccc3ccccc23)c1` [13 ap)], the IC50 under setting [1] amounted to 1930 nM.
The same measure, in the same setting: under `O=C(O)c1ccc(-c2cccc(F)c2)cc1OCc1cccc2ccccc12` [13 aq)] stands 1140 nM; under `Cc1ccccc1-c1ccc(C(=O)O)c(OCc2cccc3ccccc23)c1` [13 ar)], 530 nM; under `O=C(O)c1ccc(-c2ccc(CO)cc2)cc1OCc1cccc2ccccc12` [13 as)], 380 nM.
`O=C(O)c1ccc(-c2ccc(F)cc2)cc1OCc1cccc2ccccc12` [13 at)]: the IC50 under setting [2] worked out at 300 nM.
With `O=C(O)c1ccc(-c2cccc(O)c2)cc1OCc1cccc2ccccc12` [13 au)], the IC50 under setting [1] came to 380 nM.
Turning to `O=C(O)c1ccc(-c2ccc(Cl)cc2)cc1OCc1cccc2ccccc12` [13 av)], the IC50 under setting [2] stood at 690 nM.
On to `Cc1cc(Cl)ccc1-c1ccc(C(=O)O)c(OCc2cccc3ccccc23)c1` [13 aw)], for which the half-maximal inhibitory concentration (IC50) under setting [1] came out at 440 nM.
On the same count and under the same terms, as for `Cc1cccc(-c2ccc(C(=O)O)c(OCc3cccc4ccccc34)c2)c1` [13 ax)], the figure is 400 nM; as for `COc1ccc2cc(-c3ccc(C(=O)O)c(OCc4cccc5ccccc45)c3)ccc2c1` [13 ay)], 380 nM.
As to `O=C(O)c1ccc(-c2ccc(O)cc2)cc1OCc1cccc2ccccc12` [13 az)], the IC50 under setting [2] is 380 nM.
Turning to `O=C(O)c1ccc(-c2ccc3c(c2)OCO3)cc1OCc1cccc2ccccc12` [13 ba)], under setting [1], the half-inhibitory concentration (IC50) amounted to 240 nM.
On the same count and under the same terms, under `Cn1ccc2cc(-c3ccc(C(=O)O)c(OCc4cccc5ccccc45)c3)ccc21` [13 ca)] stands 270 nM.
Take `CC(=O)Nc1ccc(-c2ccc(C(=O)O)c(OCc3cccc4ccccc34)c2)cc1` [13 da)]: under setting [1], the IC50 worked out at 130 nM.
Regarding `O=C(O)c1ccc(NC2CCCC2)cc1OCc1cccc2ccccc12` [15 aa)], the IC50 under setting [3] is 630 nM.
The same measure, in the same setting: as for `O=C(O)c1ccc(NCCCO)cc1OCc1cccc2ccccc12` [15 ab)], the figure is 2310 nM; as for `O=C(O)c1ccc(N2CCCCCC2)cc1OCc1cccc2ccccc12` [15 ac)], 530 nM.
As to `CC(C)(C)CNc1ccc(C(=O)O)c(OCc2cccc3ccccc23)c1` [15 ad)], the IC50 under setting [3] turned out to be 470 nM.
Still for that read-out and setting: as for `COCCN(C)c1ccc(C(=O)O)c(OCc2cccc3ccccc23)c1` [15 ae)], the figure is 1390 nM; as for `CN(CCO)c1ccc(C(=O)O)c(OCc2cccc3ccccc23)c1` [15 af)], 720 nM; as for `O=C(O)c1ccc(NCC2CCCCC2)cc1OCc1cccc2ccccc12` [15 ag)], 2430 nM.
On the same count and under the same terms, as for `CCCN(CC1CC1)c1ccc(C(=O)O)c(OCc2cccc3ccccc23)c1` [15 ah)], the figure is 1310 nM.
Still for that read-out and setting: under `C[C@H](Nc1ccc(C(=O)O)c(OCc2cccc3ccccc23)c1)C1CCCCC1` [15 ai)] stands 3520 nM.
Take `O=C(O)c1ccc(NC2CCCCCC2)cc1OCc1cccc2ccccc12` [15 aj)]: the IC50 under setting [3] is 1790 nM.
Regarding `CC1CCC(Nc2ccc(C(=O)O)c(OCc3cccc4ccccc34)c2)CC1` (centres unmarked) [15 ak)], the IC50 under setting [3] was determined as 1240 nM.
Regarding `CCCNc1ccc(C(=O)O)c(OCc2cccc3ccccc23)c1` [15 al)], the concentration for half-maximal inhibition (IC50) under setting [3] came out at 370 nM.
Regarding `O=C(O)c1ccc(N[C@H]2CC[C@H](O)CC2)cc1OCc1cccc2ccccc12` [15 am)], under setting [3], the IC50 was 190 nM.
Regarding `CN(C)c1ccc(C(=O)O)c(OCc2cccc3ccccc23)c1` [15 an)], the IC50 (IC50, Example 15 table, FPPS SPA) was 190 nM.
In the case of `CCNc1ccc(C(=O)O)c(OCc2cccc3ccccc23)c1` [15 ao)], under setting [3], the IC50 is 730 nM.
Still for that read-out and setting: under `CN1CCCC1CCNc1ccc(C(=O)O)c(OCc2cccc3ccccc23)c1` (centres unmarked) [15 ap)] stands 17500 nM.
As for `CC(Nc1ccc(C(=O)O)c(OCc2cccc3ccccc23)c1)C(C)(C)C` (centres unmarked) [15 aq)], the half-inhibitory concentration (IC50) under setting [3] came out at 650 nM.
Consider `COCCNc1ccc(C(=O)O)c(OCc2cccc3ccccc23)c1` [15 ar)], for which, under setting [3], the half-inhibitory concentration (IC50) turned out to be 8100 nM.
For the compound `CC(=O)N1CCN(c2ccc(C(=O)O)c(OCc3cccc4ccccc34)c2)CC1` [15 as)], the half-inhibitory concentration (IC50) under setting [3] worked out at 6500 nM.
Regarding `CN1CCCN(c2ccc(C(=O)O)c(OCc3cccc4ccccc34)c2)CC1` [15 at)], the IC50 under setting [3] worked out at 6450 nM.
Still for that read-out and setting: as for `O=C(O)c1ccc(N2CCOCC2)cc1OCc1cccc2ccccc12` [15 au)], the figure is 3180 nM.
In the case of `CN1CCC(Nc2ccc(C(=O)O)c(OCc3cccc4ccccc34)c2)CC1` [15 aw)], under setting [3], the IC50 stood at 4750 nM.
Same read-out and setting: as for `CCN(CC)CCN(C)c1ccc(C(=O)O)c(OCc2cccc3ccccc23)c1` [15 az)], the figure is 26600 nM; as for `CN1CCN(c2ccc(C(=O)O)c(OCc3cccc4ccccc34)c2)CC1` [15 ba)], 38600 nM.
`O=C(O)c1ccc(NCc2ccccc2)cc1OCc1cccc2ccccc12` [16 b)]: the IC50 under setting [4] came out at 210 nM.
Same read-out and setting: as for `O=C(O)c1ccc(NCC2CC2)cc1OCc1cccc2ccccc12` [16 c)], the figure is 1200 nM.
With `CCN(CC)c1ccc(C(=O)O)c(OCc2c(Cl)ccc3ccccc23)c1` [17 a)], the IC50 under setting [5] was found to be 770 nM.
`Cc1ccc2ccccc2c1COc1ccccc1C(=O)O` [17 b)]: the IC50 under setting [5] came out at 340 nM.
On the same count and under the same terms, as for `Cc1ccc2ccccc2c1COc1cc(-n2c(C)ccc2C)ccc1C(=O)O` [17 c)], the figure is 480 nM.
The same measure, in the same setting: as for `CCN(CC)c1ccc(C(=O)O)c(OCc2c(C)ccc3ccccc23)c1` [17 d)], the figure is 660 nM.
Still for that read-out and setting: under `Cc1ccc(COc2ccccc2C(=O)O)c2ccccc12` [17 e)] stands 1830 nM.
Consider `CCN(CC)c1ccc(C(=O)O)c(OCc2cccc3ccc(Cl)cc23)c1` [17 f)], for which the IC50 under setting [5] was found to be 1820 nM.
Regarding `Cc1ccc(C)n1-c1ccc(C(=O)O)c(OCc2cccc3ccccc23)c1` [17 g)], under setting [5], the IC50 was 240 nM.
The same measure, in the same setting: as for `O=C(O)c1cc2ccccc2cc1OCc1cccc2ccccc12` [17 h)], the figure is 840 nM; as for `CCN(CC)c1ccc(C(=O)O)c(OCc2cccc3ccccc23)c1` [17 i)], 400 nM; as for `O=C(O)c1cc(Cl)ccc1OCc1cccc2ccccc12` [17 j)], 2960 nM.
The same measure, in the same setting: under `O=C(O)c1ccc(C(F)(F)F)cc1OCc1cccc2ccccc12` [17 k)] stands 810 nM; under `O=C(O)c1ccc(OC(F)(F)F)cc1OCc1cccc2ccccc12` [17 l)], 2910 nM.
Take `CC(C)CCOc1ccc(C(=O)O)c(OCc2cccc3ccccc23)c1` [17 m)]: the half-maximal inhibitory concentration (IC50) under setting [5] stood at 1900 nM.
As for `O=C(O)c1ccc(OCc2ccccc2)cc1OCc1cccc2ccccc12` [17 n)], under setting [5], the IC50 came to 730 nM.
On the same count and under the same terms, under `COc1ccc(OCc2cccc3ccccc23)c(C(=O)O)c1` [17 o)] stands 880 nM; under `Cc1cc(O)c(C(=O)O)c(OCc2cccc3ccccc23)c1` [17 p)], 2500 nM.
On the same count and under the same terms, under `O=C(O)c1ccc(Br)cc1OCc1cccc2ccccc12` [17 q)] stands 6750 nM.
Take `O=C(O)c1ccccc1OCc1cccc2ccccc12` [17 r)]: the IC50 under setting [5] came out at 12800 nM.
Same read-out and setting: as for `COc1ccc(C(=O)O)c(OCc2cccc3ccccc23)c1` [17 s)], the figure is 1340 nM.
As to `O=C(O)c1ccccc1OCc1cccc2ccccc12` [Example 17 r)], where the note is “IC50 on FPPS, test system termed "FPS SPA" (Example 18)”, the IC50 amounted to 12500 nM.
